# Marks after values point to notes of the source that are not given here.
# Assays:
# Format in all cases: in vivo
# [1] = tested on: TNBS-induced colitis mice; assay: TNBS-induced UC (colitis) mouse model
# Description: 5% (w/v) TNBS solution was diluted with double-distilled water and mixed with 50% (v/v) ethanol in equal volume to have 1.5% (w/v) TNBS solution. In the model control group, the mice were anesthetized with 1 wt % pentobarbital solution at a dose of 0.05 ml/10 g body weight. After being anesthetized, the mice were administrated with 1.5% (w/v) TNBS solution at a dose of 0.1 ml/mouse by gently inserting stomach perfusion device to about 3 cm depth via anus and arriving at the colon, and the IBD was induced. In the saline group, the saline was gently injected into the colon at a dose of 0.1 ml/mouse. In the normal control group, 50% (v/v) ethanol was gently injected into the colon at a dose of 0.1 ml mouse.
# After one week adaptive feeding, all animals were randomly divided into 5 groups according to body weight, 10 mice in one group: the normal control group, the model control group, the andrographolide low-dose group (20 mg/kg/d), the andrographolide high-dose group (40 mg/kg/d) and the positive control group (Sulfasalazine group, 300 mg/kg/d). Two hours after making model, the animals in each treating groups were orally administrated twice daily with the andrographolide and once daily in the positive control group. After successive administration for 7 days, the abdomen was opened 24 hours after the last administration to observe adhesion degree between the colon and other organs. The colon was separated and weighed.
# 1. Body weight: after making model, body weight was measured every day to observe the change in the animals.
# 2. Evaluation of inflammation: the abdomen was opened 24 hours after the last administration to observe adhesion degree between the colon and other organs. Every segment of the colon was taken out and weighed to calculate the percentage of the colon weight to body weight, as the colon index. The formula was presented as follows: Decrease rate of colon specific weight=(colon index of the model control group−colon index of the treatment group)/colon index of the model control group×100%
# 3. Histopathological examination: a part of the colon was taken to prepare the pathological section, and the standard for score was as follows: • 0 score, no inflammatory symptoms; • 1 score, low-grade inflammation with no structure change; • 2 score, low-grade leukocyte infiltration; • 3 score, high-grade leukocyte infiltration, high vascular density, crypt extension, thickened colon wall and superficial ulcer • 4 score, high-grade leukocyte infiltrating exceeding to mucous layer, crypt extension, decrease of goblet cell, high vascular density, thickened colon wall and extensive ulcer
# SPSS11.5 software was used for analysis and the data were expressed as x±S. Variance analysis was used for comparison of significant difference among groups.
# [2] = tested on: zebra fish Crohn's disease model; assay: Zebra fish Crohn's disease model (TNBS), efficacy; conditions: intestinal tissue; prednisolone 10 μM; x ± SE, n = 10
# TNBS-induced UC rats = assay: TNBS-induced UC rat model, different administration routes
# From the text: 4 Dose Designing and Grouping • 4.1 Grouping: quarantine-qualified 84 rats were all used for making UC model. The successful rats were randomly divided into 6 groups: the model control group, the positive control group, the andrographolide low-dose intragastric group, the andrographolide high-dose intragastric group, the andrographolide low-dose intracolonical group and the andrographolide high-dose intracolonical group, 14 rats per group. • 4.2 Dose: the same doses were adopted in both intragastric and intracolonical groups. Animals were not treated in the model control group, the positive control group (mesalazine enteric tablet, 420 mg·kg^−1·d^−1), the andrographolide low-dose intragastric group (30 mg·kg^−1·d^−1), the andrographolide high-dose intragastric group (90 mg·kg^−1·d^−1), the andrographolide low-dose intracolonical group (30 mg·kg^−1·d^−1) and the andrographolide high-dose intracolonical group (90 mg·kg^−1·d^−1).
# 5. Method • 5.1 Method of making UC model: the rats were anesthetized. 2 mm-diameter latex tube was gently inserted into the position about 8 cm inside the body of the rats through anus, and TNBS in 50% ethanol solution (TNBS 125 mg/kg) was injected into intestinal lumen with an injector by one time, 0.5 ml/rat. The tail of the rat was lifted up for 30 s to make the model making agent (i.e., TNBS) fully infiltrate into the intestinal lumen of the rats. • 5.2 Method of administration: the same dose (1 mL/100 g) was adopted in both intragastric and intracolonical administration, once daily for consecutive 5 days. • 5.3 Method for sampling in experiment: 2 hours after the last administration, the rats were killed by cervical vertebra dislocation and abdomen was opened to separate the colon. Along mesenteric side, the intestinal lumen was cut and rinsed with 4° C. normal saline and spread on a plastic plate. • 5.4 Scoring method for colon gross morphological injury was referred to scoring method for mucosal injury (Bjelkengren G, Aronsen K F, Augustsson N E, etc. Radioprotective effect of local administration of lysine vasopressin and triglycyl lysine vasopressin on the rectal mucosa in rats[J]. Acta Oncol, 1995, 34(4):487-92) to record the mucosal injury score: dotted line blooding and small red spots (<1 mm): 1 score, piece blooding and big red spots (=1 mm): 3 score; and erosion and ulcer: 5 score.
# (§1) Data were expressed as mean+standard deviation (x±S). All numerical variables were analyzed with SPSS13.0 software by one-way ANOVA. T-test analysis was used for inter-group comparison.
# DSS-induced UC mice = assay: DSS-induced UC mouse model, disease active index; conditions: mesalazine enteric tablet 227.5 mg/kg/d
# From the text: 4 Dose Designing and Grouping • 4.1 Grouping: quarantine-qualified 84 mice were randomly divided into 6 groups: the model control group, the positive control group, the tested drug low-dose intragastric group, the tested drug high-dose intragastric group, the tested drug low-dose intracolonical group and the tested drug high-dose intracolonical group, 14 mice per group. All animals drank 5% DSS solution daily for consecutive 14 days to establish UC model. Animals were administrated with the drug for treatment on the 2nd day after being given 5% DSS drinking water. • 4.2 Dose: in this study, dose of administration of the mice in all groups was designed on the basis of client's requirements, and the same doses were adopted in both intragastric and intracolonical groups. Animals were not treated in the model control group, the positive control group (mesalazine enteric tablet, 227.5 mg·kg^−1·d^−1), the andrographolide low-dose intragastric group (60 mg·kg^1·d^−1), the andrographolide high-dose intragastric group (180 mg·kg^−1·d^−1), the andrographolide low-dose intracolonical group (60 mg·kg^−1·d^−1) and the andrographolide high-dose intracolonical group (180 mg·kg^−1·d^−1).
# 5 Method • 5.1 Method of making UC model: all animals drank 5% DSS solution daily for consecutive 14 days. • 5.2 Method of administration: on the 2nd day after modeling, the mice were treated intragastrically or intracolonically with the drug at 1 mL/100 g once a day for consecutive 14 days. • 5.3 Method for sampling in experiment: 2 hours after the last administration, the mice were killed by cervical vertebra dislocation and abdomen was opened to separate the colon. Along mesenteric side, the intestinal lumen was cut and rinsed with 4° C. normal saline and spread on a plastic plate. • 5.4 Method for evaluating disease active index (DAI): the disease active index was assessed at the 7th and 14th day after administration. The method was presented together with the following three parameters: the body weight loss percentages (unchanged BW: 0 score, 1˜5: 1 score, 5˜10: 2 score, 10˜15: 3 score, more than 15: 4 score), stool viscosity (normal stool: 0 score, loosen stool: 2 score, diarrhea: 4 score) and blood stool (normal stool: 0 score, occult blood stool: 2 score and positive blood stool: 4 score). Total score of three parameters was divided by 3 to give the DAI, namely DAI=(BW index score+stool character score+stool blood score)/3.
# 6 Observation Indices • 6.1 Observation: the general clinical symptoms in the mice were observed daily from the beginning to the end of the experiment, and the stool, mental status and death status were recorded. • 6.2 Body weight: BW was recorded weekly from the beginning to the end of the experiment. • 6.3 Calculation of DAI: DAI was calculated on the 7th and 14th day after administration so as to assess disease activity. • 6.4 The colon mucosal tissue 8˜10 cm away from the anus was sampled, embedded with paraffin and stained with routine HE. Colon mucosal injury was observed by a microscope and histological injury was scored based on the following indices: ulcer inflammatory granuloma, fibrosis and pathological degree.
# as §1
# [3] = sulfasalazine 300 mg/kg/d, once daily, 7 days
# [4] = mesalazine enteric tablet 420 mg/kg, once daily 5 days
smiles,measurement,setting,value
"O=C(O)c1cc(/N=N/c2ccc(S(=O)(=O)Nc3ccccn3)cc2)ccc1O [Sulfasalazine, reference compound]",Body weight increase compared with the model control group,"[1]; FIG. 1, treated groups",increased faster than that in the model control group
same,Colon scores,"[1]; histopathological score 0-4, sulfasalazine 300 mg/kg/d, 7 days",2.8*
same,Colon indices,"[1]; percentage of colon weight to body weight, sulfasalazine 300 mg/kg/d, 7 days",1.75 ± 0.43
same,Body weight,[1]; [3],19.13 ± 0.99 g
same,Colon weight,[1]; [3],0.33 ± 0.06 g
same,Intestinal elasticity compared with the model control group,"[1]; treated groups, after 7 days",higher than that in the model control group
same,Decrease rate of colon specific weight,"[1]; vs model control group, sulfasalazine 300 mg/kg/d, 7 days",47.87%
"C[C@]12C=CC(=O)C=C1CC[C@@H]1[C@@H]2[C@@H](O)C[C@@]2(C)[C@H]1CC[C@]2(O)C(=O)CO [prednisolone, reference compound]",Number of Neutrophil,[2],14 ± 0.60
"Nc1ccc(O)c(C(=O)O)c1 [Positive control group, mesalazine, reference compound]",Gross morphological injury score,TNBS-induced UC rats; [4],3.16 ± 1.97
same,Ulcer ratio,TNBS-induced UC rats; [4],35.45* %
same,"Formless watery stool symptoms, course",TNBS-induced UC rats; positive control group 420 mg/kg,most of watery stool symptoms disappeared in the rats on the 5th˜6th days
same,DAI on the 7th day,DSS-induced UC mice,1.31 ± 0.14
same,DAI on the 14th day,DSS-induced UC mice,1.10 ± 0.55

# Reference: patent US9889093B2, “Application of andrographolide in the preparation of a pharmaceutical for treatment of inflammatory bowel disease, andrographolide enteric targeting micropellet, and method for preparation thereof” (TASLY PHARMACEUTICAL GROUP CO., LTD., priority 2013, dated 2018)
